Measurements taken from US6407122B1, “Amino-benzothiazole derivatives” (Pharmacia & Upjohn S.p.A., priority 1997, dated 2002).

Test system: mixed cortical neuronal cultures
Assay: Neuroprotection against NMDA (500 μM) toxicity in mixed cortical neuronal cultures, Trypan Blue Dye Exclusion Test
Assay type: cell-based
Conditions: Rattus norvegicus, Cortical neurone; cultured cortical neurons from foetal rats; 3 min preincubation, 20 min exposure to NMDA 500 μM, viability after 24 hours; mean of at least 3 different experiments; read-out: EC50 (neuroprotective effect)
Experimental: The efficacy of the compounds of the invention as neuroprotective agents was evaluated in mixed cortical neuronal cultures, following the method reported below.
Mixed cortical neuronal cultures from foetal rats at 16 days of gestation were prepared as described by Choi (j. Neur. Sci. 7: 357-368, 1987). Briefly dissociated cells were plated on poly-L-lysine coated multiwell plates at density of 1*10^5 cells/cm^2 in MEM with Earle's salts supplemented with 21 mM D-glucose, 2 mM L-glutamine, 50 μg/ml Streptomicin, 50 IU Penicillin, 10% Foetal Calf Serum and 10% Horse Serum. Cultures were kept at 37° C., 5% CO2 and survived about 5 weeks. After 7 days in vitro, astrocites proliferation was inhibited by adding 10 μM Cytosine Arabinoside for 48 hours; the medium was subsequently substituted twice a week with a fresh medium without foetal call serum (Hatley, J. Pharm. and Exp. Ther. 250 (II);752-758, 1989).
Only nature cortical cultures, from 14 DIV on, were used for the study. Experiments were performed at 25° C. as follows: cells were washed once with a Locke's buffer, (128 mM NaCl, […], 1.2 mM Na2HPO4, 2.7 mM CaCl2, 20 mM Hepes and 10 mM D-glucose) pH=7.4, then preincubated with the test compounds for 3 min. followed by a 20 min. exposure to N-methyl-D-aspartate (NMDA) (500 μM).
The incubation was stopped by removing Locke's buffer and substituting the conditioned medium. […]

SMILES | EC50 [nM]
OC(CN1CCC(Cc2ccc(F)cc2)CC1)c1ccc(Cl)cc1 (centres unmarked) [Eliprodil] | 2260
Nc1nc2ccc(CCN3CCC(Cc4ccccc4)CC3)cc2s1 [Example 15, 1-(2-Amino-benzothiazol-6-yl)-2-(4-benzyl-piperidin-1-yl)-ethane] | 640
